The values that follow come from ChEMBL document CHEMBL1149500, “Binding of aminoglycosidic antibiotics to the oligonucleotide A-site model and 30S ribosomal subunit: Poisson-Boltzmann model, thermal denaturation, and fluorescence studies” (J Med Chem, 2006).

The target of the assay is Ribosomal RNA A-site. As to the kind of experiment: Binding affinity to bacterial ribosomal A site RNA oligonucleotide. Format: nucleic-acid assay.
In the case of `CN[C@@H]1[C@@H](O)[C@@H](O[C@@H]2[C@@H](O)[C@H](O[C@H]3O[C@H]([C@@H](C)O)[C@@H](O)[C@H](O)[C@H]3N)[C@@H](N)C[C@H]2N)OC[C@]1(C)O` [GENETICIN], the Kd stood at 14.5 µM.

The compound `NC[C@@H]1O[C@H](O[C@H]2[C@@H](O)[C@H](O[C@@H]3[C@@H](O)[C@H](N)C[C@H](N)[C@H]3O[C@H]3O[C@H](CO)[C@@H](O)[C@H](O)[C@H]3N)O[C@@H]2CO)[C@H](N)[C@@H](O)[C@@H]1O` [PAROMOMYCIN] had a Kd of 0.39 µM.

In turn, `NC[C@H]1O[C@H](O[C@H]2[C@H](O)[C@@H](O)[C@H](N)C[C@@H]2N)[C@H](N)[C@@H](O)[C@@H]1O` [NEAMINE] registered a Kd of 7.39 µM.

As to `NC[C@H]1O[C@H](O[C@H]2[C@H](O[C@@H]3O[C@H](CO)[C@@H](O)[C@H]3O)[C@@H](O)[C@H](N)C[C@@H]2N)[C@H](N)[C@@H](O)[C@@H]1O` [RIBOSTAMYCIN], the affinity, expressed as Kd, was 16.4 µM.

`CN[C@@H]1[C@H](O)[C@@H](O[C@@H]2[C@@H](O)[C@H](O[C@H]3O[C@H](CN)CC[C@H]3N)[C@@H](N)C[C@H]2N)OC[C@]1(C)O` [GENTAMICIN C] showed a Kd of 5.53 µM.

One may read the Kd as the constant that tells how readily two partners part at equilibrium. Read a low Kd as a tighter complex.
